Data: paper PMC8718748, “Molecular Dissection of the Primase and Polymerase Activities of Deep-Sea Phage NrS-1 Primase-Polymerase” (Frontiers in Microbiology, 2021)

Assays:
[1] = biological target: T1, N300 (Nitratiruptor phage NrS-1, UniProt M5AAG8); assay: X-ray crystal structure of complex (SeMet, SAD, […] A); assay type: binding; details: Ca2+ (200 mM calcium acetate in crystals), pH 7.0; active site, 3'-site nucleotide
T1 construct: gene 28; N-terminal 300 residues (Prim/Pol domain + helix bundle domain) of NrSPol; pET28b, 6xHis with TEV site, tag cut for crystals (SeMet for ddCTP crystal); E. coli
T1 sequence (M5AAG8 1-300): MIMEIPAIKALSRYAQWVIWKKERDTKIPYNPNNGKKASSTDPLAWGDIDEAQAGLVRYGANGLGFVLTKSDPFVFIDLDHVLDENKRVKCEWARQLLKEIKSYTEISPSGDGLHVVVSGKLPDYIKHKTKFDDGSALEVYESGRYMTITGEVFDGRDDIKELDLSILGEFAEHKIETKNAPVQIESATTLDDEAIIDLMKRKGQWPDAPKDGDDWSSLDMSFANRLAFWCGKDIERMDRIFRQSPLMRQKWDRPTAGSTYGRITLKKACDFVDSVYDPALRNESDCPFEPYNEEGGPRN

[2] = biological target: T1, N300; assay: X-ray crystal structure of complex (native, […] A); assay type: binding; details: Mg2+; crystallised with ddCTP and ssDNA, pH 4.5; active site

Compound	X-ray crystal structure of complex (SeMet, SAD, 2.24 A) [1]	X-ray crystal structure of complex (native, 1.86 A) [2]
Nc1ccn([C@H]2CC[C@@H](COP(=O)(O)OP(=O)(O)OP(=O)(O)O)O2)c(=O)n1 [ddCTP]	we determined the crystal structures of N300 in complex with ddCTP	–
O=P(O)(O)OP(=O)(O)O [pyrophosphate]	–	a pyrophosphate (PPi) occupies the active site instead of ddCTP
